Experimental data as given in patent US20140135310A1, “SULPHONAMIDE DERIVATIVES OF ALICYCLIC AMINES FOR THE TREATMENT OF CENTRAL NERVOUS SYSTEM DISEASES” (Adamed Sp. z o.o., priority 2011, published 2014).
Where two headings read alike, the source gives them in different places.

Experiments:
Assay type in all cases: cell-based
[1] = target: T1, 5-HT1A serotoninergic receptors (Homo sapiens, UniProt P08908); assay: Cellular functional assay, 5-HT1A serotoninergic receptors; settings: for 5-HT1A ag [%]: agonist mode, percent of control specific agonist response; for 5-HT1A antag [%]: antagonist mode
T1 sequence (P08908 1-422): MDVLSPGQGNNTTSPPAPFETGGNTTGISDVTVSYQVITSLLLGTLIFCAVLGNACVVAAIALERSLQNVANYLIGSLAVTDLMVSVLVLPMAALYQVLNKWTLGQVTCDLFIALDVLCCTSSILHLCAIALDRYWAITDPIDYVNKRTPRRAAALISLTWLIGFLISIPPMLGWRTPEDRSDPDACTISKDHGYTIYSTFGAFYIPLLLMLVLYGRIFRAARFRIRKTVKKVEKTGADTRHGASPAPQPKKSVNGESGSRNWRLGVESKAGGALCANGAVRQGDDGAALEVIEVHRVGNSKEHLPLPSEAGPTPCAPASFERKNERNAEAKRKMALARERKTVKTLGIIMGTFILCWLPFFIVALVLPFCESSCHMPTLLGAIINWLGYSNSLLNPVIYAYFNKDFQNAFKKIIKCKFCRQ
Experimental: (§1) The results are expressed as a percent of control specific agonist response ((measured specific response/control specific agonist response)×100) obtained in the presence of the test compounds.
(§2) The EC50 values (concentration producing a half-maximal specific response) and IC50 values (concentration causing a half-maximal inhibition of the control specific agonist response) were determined by non-linear regression analysis of the concentration-response curves generated with mean replicate values using Hill equation curve fitting (Y=D+[(A−D)/(1+(C/C50)nH)], where Y=specific response, D=minimum specific response, A=maximum specific response, C=compound concentration, and C50=EC50 or IC50, and nH=slope factor). This analysis was performed using a software developed at Cerep (Hill software) and validated by comparison with data generated by the commercial software SigmaPlot® 4.0 for Windows® (© 1997 by SPSS Inc.).
(§3) For the antagonists, the apparent dissociation constants (Kb) were calculated using the modified Cheng Prusoff equation (Kb=IC50/(1+(A/EC50A)), where A=concentration of reference agonist in the assay, and EC50A=EC50 value of the reference agonist).

[2] = target: T2, D4 dopaminergic receptors (Homo sapiens, UniProt P21917); assay: Cellular functional assay, D4 dopaminergic receptors; settings: D4.4 (h), CHO cells; for D4 ag [%]: agonism, percent of control specific agonist response (300 nM dopamine for control); for D4 antag [%]: antagonism, stimulus dopamine (100 nM)
T2 sequence (P21917 1-419): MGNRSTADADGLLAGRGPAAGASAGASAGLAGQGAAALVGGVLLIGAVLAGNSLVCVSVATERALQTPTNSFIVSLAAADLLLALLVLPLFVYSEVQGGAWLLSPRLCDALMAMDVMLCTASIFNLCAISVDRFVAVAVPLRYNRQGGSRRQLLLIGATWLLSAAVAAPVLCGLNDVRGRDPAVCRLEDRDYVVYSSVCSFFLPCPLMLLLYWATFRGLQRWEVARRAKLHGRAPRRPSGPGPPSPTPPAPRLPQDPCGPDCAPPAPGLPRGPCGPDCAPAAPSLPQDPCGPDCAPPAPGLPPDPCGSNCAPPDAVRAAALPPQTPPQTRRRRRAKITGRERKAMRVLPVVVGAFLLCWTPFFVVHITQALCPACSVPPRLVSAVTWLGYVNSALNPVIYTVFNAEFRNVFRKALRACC
Experimental: as §1, §2, §3

[3] = target: D3 dopaminergic receptors (Homo sapiens, UniProt P35462); assay: Cellular functional assay, D3 dopaminergic receptors; settings: D3 (h), CHO cells; for D3 ag [%]: agonism, percent of control specific agonist response (0.3 μM dopamine for control); for D3 antag [%]: antagonism, stimulus dopamine (10 nM)
Experimental: as §1, §2, §3

[4] = target: 5-HT2A serotoninergic receptors (Homo sapiens, UniProt P28223); assay: Cellular functional assay, 5-HT2A serotoninergic receptors
Experimental: as §1
as §2, with “factor).” for “factor). This analysis was performed using a software developed at Cerep (Hill software) and validated by comparison with data generated by the commercial software SigmaPlot® 4.0 for Windows® (© 1997 by SPSS Inc.).”
as §3

[5] = target: D2 dopaminergic receptors (Homo sapiens, UniProt P14416); assay: Cellular functional assay, D2 dopaminergic receptors; settings: D2S (h), HEK-293 cells; for D2 ag [%]: agonism, percent of control specific agonist response (3 μM dopamine for control); for D2 antag [%]: antagonism, stimulus dopamine (30 nM)
Experimental: as §1, §2, §3

[6] = target: 5-HT7 serotoninergic receptors (Homo sapiens, UniProt P34969); assay: Cellular functional assay, 5-HT7 serotoninergic receptors; settings: for 5-HT7 ag [%]: agonist mode, percent of control specific agonist response; for 5-HT7 antag [%]: antagonist mode
Experimental: as §1, §2, §3

[7] = target: 5-HT6 serotoninergic receptors (Homo sapiens, UniProt P50406); assay: Cellular functional assay, 5-HT6 serotoninergic receptors; settings: agonist mode; percent of control specific agonist response
Experimental: as §1, §2, §3

[8] = target: T3, 5-HT2C serotoninergic receptors (Homo sapiens, UniProt P28335); assay: Cellular functional assay, 5-HT2C serotoninergic receptors; settings: for 5-HT2C ag [%]: agonist mode, percent of control specific agonist response; for 5-HT2C antag [%]: antagonist mode
T3 sequence (P28335 33-458): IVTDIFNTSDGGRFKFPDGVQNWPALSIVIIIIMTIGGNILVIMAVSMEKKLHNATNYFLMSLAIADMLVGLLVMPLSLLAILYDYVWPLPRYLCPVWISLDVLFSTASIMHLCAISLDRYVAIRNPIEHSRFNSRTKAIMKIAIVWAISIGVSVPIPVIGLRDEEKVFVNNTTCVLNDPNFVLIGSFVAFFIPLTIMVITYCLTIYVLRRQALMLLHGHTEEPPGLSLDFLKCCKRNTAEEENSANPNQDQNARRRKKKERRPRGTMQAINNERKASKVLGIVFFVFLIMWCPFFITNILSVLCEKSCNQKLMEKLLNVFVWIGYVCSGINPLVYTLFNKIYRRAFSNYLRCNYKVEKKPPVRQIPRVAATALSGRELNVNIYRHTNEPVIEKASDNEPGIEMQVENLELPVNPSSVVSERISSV
Experimental: as §1, §2, §3

[9] = agonist mode, percent of control specific agonist response

Sequence of 5-HT2A serotoninergic receptors (P28223 whole entry): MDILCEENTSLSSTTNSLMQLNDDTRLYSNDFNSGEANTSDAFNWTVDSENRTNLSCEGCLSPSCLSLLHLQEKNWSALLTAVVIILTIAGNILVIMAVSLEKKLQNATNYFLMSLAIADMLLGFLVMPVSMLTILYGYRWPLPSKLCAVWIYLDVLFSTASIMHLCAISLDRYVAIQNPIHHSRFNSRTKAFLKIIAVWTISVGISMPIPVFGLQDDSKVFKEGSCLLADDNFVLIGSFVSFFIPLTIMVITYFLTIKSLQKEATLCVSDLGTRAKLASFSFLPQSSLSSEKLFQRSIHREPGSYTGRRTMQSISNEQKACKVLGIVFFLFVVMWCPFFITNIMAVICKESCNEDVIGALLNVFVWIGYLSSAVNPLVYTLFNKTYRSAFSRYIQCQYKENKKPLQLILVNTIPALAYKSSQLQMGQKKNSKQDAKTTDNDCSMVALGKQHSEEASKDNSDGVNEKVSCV
Sequence of D3 dopaminergic receptors (P35462 whole entry): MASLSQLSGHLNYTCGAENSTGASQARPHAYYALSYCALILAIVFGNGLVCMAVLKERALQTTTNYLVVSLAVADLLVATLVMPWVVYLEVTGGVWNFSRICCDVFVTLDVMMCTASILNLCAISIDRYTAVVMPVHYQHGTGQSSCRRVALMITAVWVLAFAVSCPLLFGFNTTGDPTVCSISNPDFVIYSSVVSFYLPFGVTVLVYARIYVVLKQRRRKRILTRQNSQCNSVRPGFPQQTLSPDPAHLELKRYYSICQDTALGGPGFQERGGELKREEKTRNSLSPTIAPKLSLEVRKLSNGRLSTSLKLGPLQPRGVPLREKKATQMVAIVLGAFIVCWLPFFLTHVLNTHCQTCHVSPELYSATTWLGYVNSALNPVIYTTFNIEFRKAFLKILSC
Sequence of 5-HT7 serotoninergic receptors (P34969 whole entry): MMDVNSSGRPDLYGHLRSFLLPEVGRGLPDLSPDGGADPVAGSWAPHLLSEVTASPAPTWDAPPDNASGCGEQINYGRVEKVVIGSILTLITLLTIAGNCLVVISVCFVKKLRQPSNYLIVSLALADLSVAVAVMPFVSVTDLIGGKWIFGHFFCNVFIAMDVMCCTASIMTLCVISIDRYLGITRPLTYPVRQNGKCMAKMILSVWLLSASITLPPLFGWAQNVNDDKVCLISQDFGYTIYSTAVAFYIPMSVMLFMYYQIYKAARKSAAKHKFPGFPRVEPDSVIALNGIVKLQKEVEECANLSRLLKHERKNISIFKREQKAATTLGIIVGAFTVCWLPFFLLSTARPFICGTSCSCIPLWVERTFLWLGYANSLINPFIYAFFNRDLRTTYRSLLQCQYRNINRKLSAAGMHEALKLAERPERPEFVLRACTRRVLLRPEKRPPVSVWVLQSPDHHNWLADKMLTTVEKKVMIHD
Sequence of D2 dopaminergic receptors (P14416 whole entry): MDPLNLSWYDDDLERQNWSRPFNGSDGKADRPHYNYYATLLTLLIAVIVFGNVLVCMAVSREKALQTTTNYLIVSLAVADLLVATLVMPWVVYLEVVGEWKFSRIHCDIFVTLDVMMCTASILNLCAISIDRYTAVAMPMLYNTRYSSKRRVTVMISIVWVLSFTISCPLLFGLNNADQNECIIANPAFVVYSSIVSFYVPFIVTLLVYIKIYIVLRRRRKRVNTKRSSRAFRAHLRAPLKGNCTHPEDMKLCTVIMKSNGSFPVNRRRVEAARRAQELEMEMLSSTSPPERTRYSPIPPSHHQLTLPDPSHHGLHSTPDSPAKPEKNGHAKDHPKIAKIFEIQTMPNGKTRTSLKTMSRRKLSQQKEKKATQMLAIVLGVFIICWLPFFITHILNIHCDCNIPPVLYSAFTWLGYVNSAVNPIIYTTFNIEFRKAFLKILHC
Sequence of 5-HT6 serotoninergic receptors (P50406 whole entry): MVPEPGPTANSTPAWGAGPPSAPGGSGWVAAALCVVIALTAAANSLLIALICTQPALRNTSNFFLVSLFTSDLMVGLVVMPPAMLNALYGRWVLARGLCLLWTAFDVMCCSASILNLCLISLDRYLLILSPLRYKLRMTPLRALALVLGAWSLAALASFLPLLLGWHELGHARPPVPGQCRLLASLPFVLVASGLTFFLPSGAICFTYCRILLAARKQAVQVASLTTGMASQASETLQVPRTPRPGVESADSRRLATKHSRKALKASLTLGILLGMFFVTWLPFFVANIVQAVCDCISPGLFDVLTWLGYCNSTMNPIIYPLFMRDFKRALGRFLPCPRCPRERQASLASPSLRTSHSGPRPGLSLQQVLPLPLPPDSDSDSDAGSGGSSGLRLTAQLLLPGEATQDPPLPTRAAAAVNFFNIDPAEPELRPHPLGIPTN

| Compound | 5-HT1A ag [%] [1] | D4 ag [%] [2] | D4 antag [%] [2] | D3 ag [%] [3] | D3 antag [%] [3] | 5-HT2A ag [%] [4] | D2 ag [%] [5] | D2 antag [%] [5] | 5-HT7 ag [%] [6] | 5-HT6 ag [%] [7] | 5-HT1A antag [%] [1] | 5-HT2C ag [%] [8] | 5-HT2C antag [%] [8] | 5-HT2A ag [%] [4, 9] | 5-HT2A antag [%] ([4]; antagonist mode) | 5-HT7 antag [%] [6] | 5-HT2A antag [%] [4] |
| --- | --- | --- | --- | --- | --- | --- | --- | --- | --- | --- | --- | --- | --- | --- | --- | --- | --- |
| O=S(=O)(NC1CN(CCOc2cccc3[nH]ccc23)C1)c1ccc2ccccc2c1 [Compound 50, N-[1-[2-(1H-Indol-4-yloxy)ethyl]azetidin-3-yl]naphthalene-2-sulphonamide] | 48% | 62% | 32% | 85% | 0% | −2% | 56% | 92% | 21% | – | – | – | – | – | – | – | – |
| O=S(=O)(NC1CCN(CCOc2nsc3ccccc23)C1)c1ccc2ccccc2c1 (stereo not shown) [Compound 39, N-[1-[2-(1,2-Benzothiazol-3-yloxy)ethyl]pyrrolidin-3-yl]naphthalene-2-sulphonamide] | 34% | – | – | 66% | 16% | 3% | – | – | 1% | −1% | – | – | – | – | – | – | – |
| O=S(=O)(NC1CN(CCOc2cccc3c2OCCO3)C1)c1cccc2ccccc12 [Compound 94, N-[1-[2-(2,3-Dihydro-1,4-benzodioxan-8-yloxy)ethyl]azetidin-3-yl]-naphthalene-1-sulphonamide] | 41% | 60% | 9% | 51% | 38% | – | 45% | 99% | 19% | – | 90% | 92% | −57% | 7% | 48% | 68% | – |
| O=S(=O)(NC1CCN(CCOc2cccc3[nH]ccc23)CC1)c1ccccc1 [Compound 55, N-[1-[2-(1H-Indol-4-yloxy)ethyl]-4-piperidine]benzenesulphonamide] | 72% | – | – | 82% | −33% | – | – | – | 5% | – | 18% | – | – | −1% | – | 48% | – |
| O=S(=O)(NC1CCN(CCCc2c[nH]c3ccc(F)cc23)C1)c1ccc2ccccc2c1 (stereo not shown) [Compound 80, N-[1-[3-(5-Fluoro-1H-indol-3-yl)propyl]pyrrolidin-3-yl]naphthalene-2-sulphonamide] | 42% | 6% | 80% | 91% | −5% | 34% | 33% | 78% | 3% | 9% | – | – | – | – | – | – | – |
| N-[[1-[2-[(2,2-Dimethyl-3H-benzofuran-7-yl)oxy]ethyl]azetidin-3-yl]methyl]-3-hydroxy-benzenesulphonamide [Compound 111] | 48% | – | – | – | – | – | 36% | 89% | 24% | – | 89% | – | – | 5% | 58% | 55% | – |
| CC(C)(C)c1ccc(S(=O)(=O)NCC2CN(CCOc3cccc4c3OCCO4)C2)cc1 [Compound 181, 4-tert-Butyl-N-[[1-[2-(2,3-dihydro-1,4-benzodioxin-5-yloxy)ethyl]azetidin-3-yl]methyl]benzenesulphonamide] | 66% | – | – | – | – | – | – | – | 0% | – | – | 46% | 6% | – | – | – | – |
| COc1ccc2cc(S(=O)(=O)N[C@@H]3CCN(CCCc4noc5cc(F)ccc45)C3)ccc2c1 [Compound 230, N-[(3R)-1-[3-(6-Fluoro-1,2-benzoxazol-3-yl)propyl]pyrrolidin-3-yl]-6-methoxy-naphthalene-2-sulphonamide] | – | – | – | 0% | 89% | – | 3% | 94% | – | −1% | – | −2% | – | −2% | – | – | – |
| O=S(=O)(NCC1CN(CCOc2cccc3c2OCCO3)C1)c1ccc(Cl)c(Cl)c1 [Compound 183, 3,4-Dichloro-N-[[1-[2-(2,3-dihydro-1,4-benzodioxin-5-yloxy)ethyl]azetidin-3-yl]methyl]benzenesulphonamide] | 71% | – | – | – | – | 1% | 8% | 53% | 2% | – | – | 50% | 12% | – | – | – | – |
| Cc1c(S(=O)(=O)N[C@H]2CCN(CCCc3noc4cc(F)ccc34)C2)sc2ccc(F)cc12 [Compound 203, 5-Fluoro-N-[(3S)-1-[3-(6-fluoro-1,2-benzoxazol-3-yl)propyl]pyrrolidin-3-yl]-3-methyl-benzothiophene-2-sulphonamide] | – | – | – | 11% | 65% | – | 0% | 80% | 0% | −2% | – | 1% | – | −1% | – | – | – |
| Cc1cccc(S(=O)(=O)NC2CCN(CCCc3c[nH]c4ccc(F)cc34)C2)c1 (stereo not shown) [Compound 78, N-[1-[3-(5-Fluoro-1H-indol-3-yl)propyl]pyrrolidin-3-yl]-3-methyl-benzenesulphonamide] | 54% | – | – | 89% | −10% | 51% | – | – | – | 54% | – | – | – | – | – | – | −1% |
| O=S(=O)(NC1CN(CCOc2cccc3[nH]ccc23)C1)c1cccc2ccccc12 [Compound 49, N-[1-[2-(1H-Indol-4-yloxy)ethyl]azetidin-3-yl]naphthalene-1-sulphonamide] | 39% | – | – | 75% | 12% | – | 57% | 97% | 26% | – | – | – | – | – | – | – | – |
| Cc1ccc2sc(S(=O)(=O)N[C@@H]3CCN(CCCc4noc5cc(F)ccc45)C3)cc2c1 [Compound 228, N-[(3R)-1-[3-(6-Fluoro-1,2-benzoxazol-3-yl)propyl]pyrrolidin-3-yl]-5-methyl-benzothiophene-2-sulphonamide] | – | – | – | −15% | 98% | – | −1% | 94% | 0% | −2% | – | 0% | – | 1% | – | – | – |
